# According to the METLIN SMRT retention time set (Domingo-Almenara et al. 2019):
# Experiment: gradient 5% acetonitrile 3 min, to 50% in 2 min, to 85% in 15 min, held 3 min, 100 µL/min
# Settings: column: Zorbax Extend-C18 2.1 x 50 mm; eluents: water / acetonitrile, 0.1% formic acid
# Summary of the method: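 The system's dead and dwell volumes were 40 μL and 900 μL, with a Zorbax Extend-C18 column (2.1 × 50 mm, 1.8 μm) run at 100 μL/min in water and acetonitrile containing 0.1% formic acid each. Pure standards were analyzed in mixtures of ~100 molecules by HPLC–quadrupole time-of-flight mass spectrometry in positive and negative ionization mode. Retention time was assigned from computationally picked, manually inspected adduct peaks.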
row,RP-LC retention time [s],Structure (SMILES)
1,1070,CCCn1cc(C2=CCN(S(=O)(=O)Cc3ccccc3)CC2)c2cccnc21
2,1240,CCCC(=O)Nc1ccc(-c2nc(-c3ccc(Cl)cc3)no2)cc1
3,1110,Cc1nc2nc(-c3ccc(C(C)(C)C)cc3)nn2c(C)c1CC(=O)N(C)Cc1ccccc1
4,676,COc1ccc(C)cc1NC(=O)NCCc1cn(C)c2ncccc12
5,832,Cc1ccc(NC(=O)Cn2nc3cc(C)nc(-c4ccccc4)n3c2=O)c(C)c1
6,589,CCN(CC)C(=O)c1cnc2nc(C)ccc2c1Nc1ccc(C(C)=O)cc1
7,1170,CCc1sc(NC(=O)c2cccc(NC(=O)C(CC)CC)c2)nc1-c1ccccc1
8,1100,Cc1oc(-c2ccccc2)nc1Cc1noc(COc2ccc(F)cc2)n1
9,859,CCOc1ccc(NC(=O)N2CCCC2c2nc(-c3ccccc3OC)no2)cc1 (stereo not drawn)
10,598,CC(C)(Oc1ccc(Cl)cc1)C(=O)N1CCN(CCn2cccn2)CC1
11,1130,O=S(=O)(c1ccc(F)c(Cl)c1)N1CCc2nc(-c3ccccc3)ncc2C1
12,855,COc1ccc(OCc2noc(CNC(=O)CSc3nc4ccccc4s3)n2)cc1
13,803,COc1ccc(-c2noc(Cn3ccn(-c4ccc(Cl)cc4)c(=O)c3=O)n2)cc1OC
14,722,O=C(CN1C(=O)c2ccccc2C1=O)NCc1nnnn1-c1ccc(Cl)cc1
15,660,COc1cn2c(cc1=O)C(=O)N(CCNC(=O)c1c(F)cccc1Cl)CC2
16,660,COc1ccc(-c2ncccc2CNS(=O)(=O)c2cccc(C#N)c2)cc1

row,RP-LC retention time [s],Structure (SMILES)
1,616,CC(C)NC(=O)CCNc1c(-c2ccc(F)cc2)nc2cnccn12
2,1120,C=CCn1c(=O)c2ccccc2n(Cc2nc(-c3ccc(Cl)c(F)c3)no2)c1=O
3,1180,Cc1ccc(-c2coc(-c3ccc(NC(=O)NC4CCCC4)cc3)n2)c(C)c1
4,583,CCN(Cc1ccc(Cl)cc1)Cc1cc(=O)n2cc(C)ccc2n1
5,742,O=C(NCc1ccc2c(c1)OCO2)C1CCN(c2ccc(SCc3ccccc3)nn2)CC1
6,600,Cc1cc(=O)n(CC(=O)Nc2cccc(C)c2C)c(N)n1
7,1100,Cn1nccc1-c1cccc(-c2noc(-c3cc(F)ccc3F)n2)c1
8,1020,O=C1N(c2cccc(F)c2)c2ncccc2S(=O)(=O)N1Cc1ccccc1
9,823,COC(=O)COc1cc(-c2cccc(Cl)c2)nc2ccc(NC(=O)C3CC3)cc12
10,771,Cc1ccc(Nc2nc3ccncc3n(C(C)C)c2=O)cc1Cl
11,559,CCN1CCN(c2c(C(=O)c3ccc(C)cc3)cnc3cc(OC)c(OC)cc23)CC1
12,828,O=C(c1cnccn1)N1CCN(c2nc(-c3ccc(Cl)cc3)no2)CC1
13,612,COCCCNC(=O)C1CCC(=O)N(c2ccc(OC)cc2)C1c1ccc(OC)c(OC)c1 (stereo not drawn)
14,640,COc1ccc(-c2nc3ncccn3c2Nc2ccc(OC)c(OC)c2)cc1
15,867,Cc1ccc(N2CCN(C(=O)c3ccc(Cn4cncn4)cc3)CC2)c(C)c1

# Continued, compound first:
row,Structure (SMILES),RP-LC retention time [s]
1,O=C(Cc1ccsc1)NCc1cccnc1Oc1ccccc1,704
2,O=C(NCCCN1CCCCCC1)c1ccc2c(c1)NC(=O)C1CCCCN21 (stereo not drawn),609
3,Cc1cc(N2CCN(C)CC2)nc2ccc(NC(=O)c3cccc([N+](=O)[O-])c3)cc12,576
4,Cc1cc(N2CCCC2)n2nc(CN3CCN(CC(C)C)CC3)nc2n1,549
5,CCCn1ccc2sc(C)c(C(=O)NCC3CCCCC3)c2c1=O,1010
6,Cc1ccc(NC(=O)N2CCc3c(c(-c4nnc(-c5ccc(F)cc5)o4)nn3C)C2)cc1C,943
7,COc1ccc(N2CC(c3noc(-c4cc(F)cc(F)c4)n3)CC2=O)cc1 (stereo not drawn),969
8,COCCNC(=O)c1ccc2c(c1)CCCN2S(C)(=O)=O,649
9,COc1cccc(OC)c1C(=O)N1CCCC1c1cc(C)on1 (stereo not drawn),679
10,O=C(c1ccccn1)N1CCC2(CC1)NC(=O)N(Cc1ccccc1Cl)C2=O,716
11,O=C(O)c1cn(CCOc2ccccc2)c2ccccc12,885
12,CC(C)(C)c1csc(-c2csc(S(=O)(=O)Nc3ccc(F)c(F)c3)c2)n1,1260
13,COc1ccccc1N1CCN(c2cc(SCC(=O)NC3CCCCC3)ncn2)CC1,875
14,C=CC(C)(C)c1cc(/C=C/C(=O)c2ccc(O)cc2)c(OC)cc1O,903
15,O=c1c2cc(-c3ccc(F)cc3)nn2cnn1Cc1nc(-c2cccc(C(F)(F)F)c2)no1,1200
16,Cc1[nH]c2ccccc2c1C(=O)CSc1nnc2sc3ccccc3n12,829
17,O=C(NC1CC(=O)N(C2CC2)C1)C1CC=CCC1 (stereo not drawn),591
18,Cc1[nH]c(C(=O)N2CCCC(C(=O)NC(C)CCc3ccccc3)C2)c(C)c1C(=O)OC(C)C (stereo not drawn),955
19,Cc1nc(N2CCCC2)c2c(C(=O)Nc3ccc(C)c(C)c3)c(C)oc2n1,830

row,Structure (SMILES),RP-LC retention time [s]
1,COC(=O)c1ccc2c(=O)n(-c3cc(C)cc(C)c3)c(N3CCOCC3)nc2c1,1040
2,COc1ccc(-c2cn3c(CC(=O)NC4CCCCCC4)csc3n2)cc1OC,729
3,CCn1c(=O)sc2cc(S(=O)(=O)N3CCC(C(=O)NC4CCCCCC4)CC3)ccc21,937
4,COc1ccc(NS(=O)(=O)c2ccc(N)cc2)nn1,572
5,O=C(NCCCO)C1CCCN(c2ccc(Sc3ccc(Br)cc3)nn2)C1 (stereo not drawn),704
6,CCOC(=O)c1c(C)oc2nc(C)nc(NC3CCCc4ccccc43)c12 (stereo not drawn),1130
7,O=C(NC1CC1)[C@@H]1C[C@H](Oc2ccccc2)CN1C(=O)c1cc2ccccc2[nH]1,847
8,COc1cccc(OC)c1OCC(O)CN1CCN(c2ccc(F)cc2)CC1 (stereo not drawn),690
9,Cc1cccc(CN2N=C(C(=O)N3CCOCC3)S(=O)(=O)c3ccccc32)c1,832
10,O=C(c1ccc(Br)cc1)N1CCN=C1N1CCN(c2ccccc2F)CC1,632
11,CCc1nncn1C1CCN(S(=O)(=O)c2ccc(OC)cc2)CC1,668
12,O=C(c1ccoc1)N1CCCC1c1nc(-c2ccc(F)cc2F)no1 (stereo not drawn),869
13,O=C(NCCn1nc(-c2ccco2)ccc1=O)c1ccc2c(c1)ncn2-c1ccccc1,629
14,CCCn1cc(C(=O)NCCN2CCc3ccccc3C2)c2cccnc21,648
15,O=C(NCC(=O)N1CCN(c2ccccn2)CC1)c1ccc(OC(F)(F)F)cc1,635
16,CCOC(=O)c1c(S(=O)(=O)NCC(=O)N2CCN(c3ccccn3)CC2)c(C)n(C)c1C,618
17,COc1cn(CC(=O)Nc2ccc(F)cc2F)c(CO)cc1=O,565
18,Cc1ccc2c(Nc3cc(F)ccc3F)c(C(=O)OC(C)C)cnc2n1,771
19,Cc1onc(-c2ccccn2)c1C(=O)NCCCN1CCN(C2CCCCC2)CC1,582

row,Structure (SMILES),RP-LC retention time [s]
1,CCOc1ccc(-c2c(C)nn3c(C)c(C(=O)NCCCN4CCCC4=O)cnc23)cc1OCC,744
2,COc1cccc(CNC(=O)C2CCc3nc(N4CCOCC4)ncc3C2)c1 (stereo not drawn),660
3,COc1ccccc1OCCN1C(=O)CCc2c(C)ncnc21,696
4,O=C(NC1CCN(c2nnc3ccccn23)CC1)c1cccc(F)c1,640
5,COc1cccc(C(O)CN2CCN(c3cccc(C)c3C)CC2)c1 (stereo not drawn),614
6,O=C(CCc1csc(NC(=O)c2cccs2)n1)NCCc1c[nH]c2ccccc12,755
7,COc1ccccc1CNC(=O)C1CCN(S(=O)(=O)c2ccc3c(c2)CCCC(=O)N3)CC1,816
8,CCCCNC(=O)c1cn(C)nc1S(=O)(=O)N1CCC(C)CC1,938
9,CCN(CC)C(=O)c1cc(C)nc2c1c(=O)n(Cc1nc(-c3ccccc3)oc1C)c(=O)n2C,996
10,O=C(NC1CCCCC1)N1CCC(c2noc(-c3cccnc3)n2)C1 (stereo not drawn),749
11,COc1ccc(C2c3c(n(C)c4ccccc34)C(=O)N2CC(=O)N2CCN(c3ccccn3)CC2)cc1 (stereo not drawn),710
12,Cc1ccc2c(c1)N(C(=O)CCC(=O)NCCCN1CC(C)CC(C)C1)CC(C)O2 (stereo not drawn),704
13,O=C1[C@H]2CN(Cc3ccccc3)C[C@H]2C(=O)N1CCc1ccccc1,713
14,COc1ccc2c(c1)C1(CCN(C(=O)c3ccc(C)cc3)C1)C(=O)N2 (stereo not drawn),727
15,O=C(CCn1ccc2cc(S(=O)(=O)N3CCCCCC3)ccc21)N1CCN(c2ccccn2)CC1,710
16,COc1ccccc1C(=O)N1CCC(Oc2cc(N(C)C)ncn2)C1 (stereo not drawn),639
17,O=C(O)c1cccc2c1CCN2S(=O)(=O)c1ccccc1,793
18,Fc1ccc(-c2nnc(Cc3nc(-c4ccccc4F)no3)o2)cc1,1010
19,CCC(=O)N1CCCN(C2=NS(=O)(=O)C(c3ccc(C)c(C)c3)=C2C)CC1,766
